Drawing on paper PMC5196434, “Proximity does not contribute to activity enhancement in the glucose oxidase–horseradish peroxidase cascade” (Nature Communications, 2016), this text covers Km for one substance.

The target of the experiment is T1, glucose oxidase (GOx) (Aspergillus niger, UniProt P13006).
T1 construct: commercial type VII preparation (Sigma Aldrich), free enzyme
Kind of experiment: HRP-coupled ABTS colorimetric assay, absorbance at […] nm. It counts as biochemical. The note with it: co-substrate oxygen; 20 nM HRP, 2 mM ABTS; PBS pH 7.4; 23 °C; read-out: Michaelis-Menten kinetics (Km).

T1 sequence (P13006 23-605): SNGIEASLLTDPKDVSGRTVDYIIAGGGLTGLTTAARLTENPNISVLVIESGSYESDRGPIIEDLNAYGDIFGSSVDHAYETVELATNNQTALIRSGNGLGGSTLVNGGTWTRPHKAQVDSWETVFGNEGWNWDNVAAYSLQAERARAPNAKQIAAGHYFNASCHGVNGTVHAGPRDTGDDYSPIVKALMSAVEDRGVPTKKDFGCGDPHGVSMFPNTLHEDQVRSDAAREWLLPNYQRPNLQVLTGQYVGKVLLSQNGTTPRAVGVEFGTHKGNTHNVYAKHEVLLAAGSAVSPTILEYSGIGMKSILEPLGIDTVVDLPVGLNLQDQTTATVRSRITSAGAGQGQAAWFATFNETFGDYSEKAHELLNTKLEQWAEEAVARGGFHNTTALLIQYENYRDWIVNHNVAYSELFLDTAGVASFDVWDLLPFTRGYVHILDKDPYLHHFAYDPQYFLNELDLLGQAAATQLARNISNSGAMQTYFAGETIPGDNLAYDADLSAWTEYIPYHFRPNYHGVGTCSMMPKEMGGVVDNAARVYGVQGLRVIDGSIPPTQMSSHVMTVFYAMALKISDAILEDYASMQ

With D-glucose, the Km came to 15 mM.
